≈ marks a conversion by molar mass, not a printed value. Entries after “also recorded” stand apart in the source; their conditions may differ.
Legend:
[1] = system: L. pneumophila in human monocytes; format: cell-based, Legionella pneumophila
L. pneumophila [2] = assay: microbe, parasite or virus in culture; format: cell-based, Legionella pneumophila; conditions: for MIC: Legionella pneumophila, 48 h, read-out: MIC (minimum concentration at which no growth occurred)
L. pneumophila [3] = format: cell-based, Legionella pneumophila
L. pneumophila [4] = format: cell-based, Legionella pneumophila; remark: listed apart in the source
F4b [5] = format: cell-based, Legionella pneumophila
[6] = system: L. pneumophila in HL-60 cells; format: cell-based, Legionella pneumophila
[7] = system: L. pneumophila infected HL-60 cells; format: cell-based, human
F4b [8] = format: cell-based, Legionella pneumophila; remark: listed apart in the source
[9] = system: L. pneumophila in mouse J774 macrophages; format: cell-based, Legionella pneumophila
HL-60 cells = conditions: human
F4b in human macrophages = format: cell-based, Legionella pneumophila
[10] = in vivo; cited from earlier work
L. pneumophila [11] = format: cell-based, Legionella pneumophila; remark: listed apart in the source
F4b in HL-60 cells = format: cell-based, Legionella pneumophila
[12] = system: L. pneumophila in human macrophages; format: cell-based, Legionella pneumophila
P. aeruginosa = format: cell-based, Psuedomonas aeruginosa
wild type L. pneumophila = format: cell-based, Legionella pneumophila
F4b [13] = format: cell-based, Legionella pneumophila; remark: listed apart in the source

With `Cc1ccc(C)c(OCCCC(C)(C)C(=O)O)c1` [GFZ, Gemfibrozil] the “inhibition of intracellular growth (CFU)” value [1] was “one log; also recorded: partially inhibited”, the “growth in AYE broth in presence of GFZ” value (L. pneumophila [2]) was “inhibited L. pneumophila growth” and the MIC (L. pneumophila [2]) was 10 µg/mL (≈ 39.9 µM). For the same compound, the “GFZ concentration at which no growth was seen on the CYE plates” value (L. pneumophila [3]) was 400 µg/mL, the bacteriocidal or bacteriostatic (L. pneumophila [3]) was “bacteriostatic” and the “inclusion accumulation (EM)” value (L. pneumophila [4]) was “accumulated granules”. The “effect on fatty acid profile” value (F4b [5]) was “did not affect the fatty acid profile”, the “inhibition of intracellular growth (CFU)” value [6] was “partially inhibited; also recorded: three logs” and the “viability of L. pneumophila infected HL-60 cells (MTT reduction)” value [7] was “increased viability”. For the same compound, the “inclusion accumulation (EM)” value (F4b [8]) was “no apparent difference in the number or size of inclusions”, the “inhibition of intracellular growth (CFU)” value [9] was “one log; also recorded: partially inhibited” and the “effect on HL-60 cell viability” value (HL-60 cells) was “did not affect HL-60 cell viability”. For the same compound, the “inhibition of intracellular growth (CFU)” value (F4b in human macrophages) was “one log”, the “concentration of gemfibrozil used in humans treated for hyperlipidemia” value [10] was 15 to 30 µg/mL and the “effect on fatty acid profile” value (L. pneumophila [11]) was “decreased peak areas for several typical L. pneumophila fatty acids”. The “inhibition of intracellular growth (CFU)” value (F4b in HL-60 cells) was “one log”, the “inhibition of intracellular growth (CFU)” value [12] was “partially inhibited” and the “susceptibility to GFZ” value (P. aeruginosa) was “not susceptible”.

In the case of `CCCN(CCC)S(=O)(=O)c1ccc(C(=O)O)cc1` [Probenecid, probenecid], the MIC (L. pneumophila [2]) is reported as 160 µg/mL (≈ 561 µM).

`CC(C)(Oc1ccc(Cl)cc1)C(=O)O` [clofibric acid] gave an MIC (L. pneumophila [2]) of 125 µg/mL (≈ 582 µM).

For `CCc1cc(C(N)=S)ccn1` [ethionamide], the “sensitivity of wild type L. pneumophila relative to F4b (zone of inhibition)” value (wild type L. pneumophila) was “twice as sensitive”.

In the case of `NNC(=O)c1ccncc1` [isoniazid], the “sensitivity (zone of inhibition)” value (wild type L. pneumophila) is reported as “no sensitivity” and the “sensitivity (zone of inhibition)” value (F4b [13]) is reported as “sensitive”.

Reference: patent US6713043B2 (priority 1996, dated 2004)
